What follows are compounds tested against human IDO1 (Homo sapiens, UniProt P14902) (assay: Assessment of human IDO-1 inhibitory activity in HEK cells (human IDO1/HEK293 cells, kynurenine read-out with Ehrlich reagent, absorbance 490 nm)). Settings: HEK Human IDO-1 cellular assay.
Sequence of human IDO1 (P14902 whole entry): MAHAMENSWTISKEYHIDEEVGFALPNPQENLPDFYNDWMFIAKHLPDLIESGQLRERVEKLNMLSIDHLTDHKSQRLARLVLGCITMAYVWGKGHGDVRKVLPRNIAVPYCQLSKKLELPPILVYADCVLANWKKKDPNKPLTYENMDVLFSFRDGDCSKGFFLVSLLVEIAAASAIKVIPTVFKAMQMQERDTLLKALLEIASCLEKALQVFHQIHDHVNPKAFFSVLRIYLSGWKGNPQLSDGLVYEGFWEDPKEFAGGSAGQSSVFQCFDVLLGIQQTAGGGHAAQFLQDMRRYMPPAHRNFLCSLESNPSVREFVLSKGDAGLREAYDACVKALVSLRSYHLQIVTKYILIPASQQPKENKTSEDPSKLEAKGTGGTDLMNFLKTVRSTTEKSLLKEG
Assay type: cell-based
Parameters: expressed in transfected cells
Procedure, shortened: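 Kynurenine output from stably IDO1-transfected HEK293 cells (10,000/well, phenol red-free RPMI, 10% FBS) after 20 h compound exposure at 37 °C. The reaction was stopped with 0.2% TCA and heated 30 min at 50 °C, then the supernatant was mixed with Ehrlich reagent and read at 490 nm. IC50 was set against DMSO and a 500 nM reference standard as 0 and 100% inhibition.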
With `CC[C@H](CC(=O)O)c1ccc(N(CC(C)C)C2CCS(=O)(=O)CC2)c(NC(=O)Nc2cc(C)on2)c1` (single isomer, unassigned) [Example 213] the IC50 was over 50 nM.
`CCC(CC(=O)O)c1ccc(N(CC(C)C)C2CCCCC2)c(Nc2ccc3c(c2)OC(F)(F)O3)c1` (single isomer, unassigned) [Example 299, 3-(4-(Cyclohexyl(isobutyl)amino)-3-((2,2-difluorobenzo[d][1,3]dioxol-5-yl)amino)phenyl)pentanoic acid] gave an IC50 of under 5 nM.
`CC[C@H](CC(=O)O)c1ccc(N(CC)C2CCOCC2)c(Nc2ccn3nccc3n2)c1` (single isomer, unassigned) [Example 511] was tested, and the IC50 was over 50 nM.
For `CC(C)(CC(=O)O)c1ccc(N2CCC[C@H]2C(C)(C)O)c(Nc2ccc(C#N)cc2)c1` [Example 809, (S)-3-(3-((4-cyanophenyl)amino)-4-(2-(2-hydroxypropan-2-yl)pyrrolidin-1-yl)phenyl)-3-methylbutanoic acid], the IC50 was under 50 nM.
Work on `CCC(CC(=O)O)c1cc(F)c(N(CC(C)C)CC(C)C)c(Nc2ccc(OCC3CC3)cc2)c1` (single isomer, unassigned) [Example 106, 3-(3-((4-(cyclopropylmethoxy)phenyl)amino)-4-(diisobutylamino)-5-fluorophenyl)pentanoic acid] yielded an IC50 of under 50 nM.
In the case of `CCC(CC(=O)O)c1ccc(N2CCC[C@H]2C(C)(C)O)c(Nc2ccc(Cl)cc2)c1` (single isomer, unassigned) [Example 820], the IC50 is reported as under 5 nM.
`CC[C@H](CC(=O)O)c1ccc(N(CC2CC2)CC(C)(C)O)c(Nc2ccc(C#N)cc2)c1` (single isomer, unassigned) [Example 272] showed an IC50 of under 5 nM.
Work on `CCC(CC(=O)O)c1ccc(N(CC)C2CCOCC2)c(NC(=O)Nc2cnc(C)nc2)c1` (single isomer, unassigned) [Example 488 Enantiomer 1, 3-(4-(Ethyl(tetrahydro-2H-pyran-4-yl)amino)-3-(3-(2-methylpyrimidin-5-yl)ureido)phenyl)pentanoic acid] yielded an IC50 of over 50 nM.
In the case of `CCC(CC(=O)O)c1ccc(N2C[C@@H]3C[C@H]2CN3Cc2ccccc2)c(Nc2ccc(C)cc2)c1` (single isomer, unassigned) [Example 666 E1], the IC50 is reported as under 5 nM.
Work on `CCN(c1ccc(C(CC(=O)O)c2ccccc2)cc1Nc1ccc(Cl)cc1)C1CCOCC1` (single isomer, unassigned) [Example 580, 3-(3-((4-chlorophenyl)amino)-4-(ethyl(tetrahydro-2H-pyran-4-yl)amino)phenyl)-3-phenylpropanoic acid] yielded an IC50 of under 5 nM.
`CCC(CC(=O)O)c1ccc(N2CCOC[C@H]2C(C)C)c(Nc2ccc3c(c2)OC(F)(F)O3)c1` (single isomer, unassigned) [Example 893] was tested, and the IC50 was over 50 nM.
Compound `CCC(CC(=O)O)c1ccc(N(CC(C)C)C2CCCCC2)c(NC(=O)Cc2ccc(Cl)cc2F)c1` (single isomer, unassigned) [Example 1096 E1] has an IC50 of under 5 nM.
Compound `CCOc1ccc(NC(=O)Nc2cc([C@@H](CC)CC(=O)O)ccc2N(CC(C)C)C2CCS(=O)(=O)CC2)cc1` (single isomer, unassigned) [Example 217] has an IC50 of over 50 nM.
`COCC(CC(=O)O)c1ccc(N(CC(C)C)C2CCCCC2)c(NC(=O)Nc2ccc(OC(F)(F)F)cc2)c1` (single isomer, unassigned) [Example 1244, 3-(4-(Cyclohexyl(isobutyl)amino)-3-(3-(4-(trifluoromethoxy)phenyl)ureido)phenyl)-4-methoxybutanoic acid] gave an IC50 of under 5 nM.
For `CCN(c1ccc(C(C)(C)CC(=O)O)cc1NC(=O)Nc1ccc(C)cc1)C1CCC(C)(O)CC1` (centres unmarked) [Example 5, 3-(4-(Ethyl(4-hydroxy-4-methylcyclohexyl)amino)-3-(3-(p-tolyl)ureido)phenyl)-3-methylbutanoic acid], the IC50 was under 50 nM.
In the case of `CCC(CC(=O)O)c1ccc(N2CCC[C@@H]2C(C)(C)O)c(Nc2ccc3c(c2)OC(F)(F)O3)c1` (single isomer, unassigned) [Example 781], the IC50 is reported as over 50 nM.
`CC[C@@H](CC(=O)O)c1ccc(N(CC)C2CCOCC2)c(Nc2ccc(OCC(F)(F)F)cc2)c1` (single isomer, unassigned) [Example 475] was tested, and the IC50 was under 5 nM.
`CC(CC(=O)O)c1ccc(N2CCC[C@H]2C(C)(C)O)c(Nc2ccc(C#N)cc2)c1` (single isomer, unassigned) [Example 797] was tested, and the IC50 was over 50 nM.
Compound `CCOc1cnc(Nc2cc(C(C)CC(=O)O)ccc2N(CC)C2CCOCC2)cn1` (single isomer, unassigned) [Example 618, 3-(3-((5-ethoxypyrazin-2-yl)amino)-4-(ethyl (tetrahydro-2H-pyran-4-yl)amino)phenyl)butanoic acid] has an IC50 of under 5 nM.
Compound `COCC(CC(=O)O)c1cc(F)c(N(CC(C)C)CC(C)C)c(NC(=O)Nc2ccc(OC)cc2F)c1` (single isomer, unassigned) [Example 1176, 3-(4-(Diisobutylamino)-3-fluoro-5-(3-(2-fluoro-4-methoxyphenyl)ureido)phenyl)-4-methoxybutanoic acid] has an IC50 of under 5 nM.
`CCC(CC(=O)O)c1cc(F)c(N(CC(C)C)CC(C)C)c(Nc2ccc(Cl)c(OCC(F)(F)F)c2)c1` (single isomer, unassigned) [Example 118, 3-(3-((4-chloro-3-(2,2,2-trifluoroethoxy)phenyl)-amino)-4-(diisobutylamino)-5-fluorophenyl)pentanoic acid] gave an IC50 of under 50 nM.
`CCN(c1ccc([C@H](COC)CC(=O)O)cc1NC(=O)Nc1ccc(OC)nc1)C1CCOCC1` (single isomer, unassigned) [Example 437] gave an IC50 of over 50 nM.
`Cc1ccc(CC(=O)Nc2cc(C(CC(=O)O)C3CC3)ccc2N(CC(C)C)C2CCCCC2)cc1` (single isomer, unassigned) [Example 1247, 3-(4-(Cyclohexyl(isobutyl)amino)-3-(2-(p-tolyl)acetamido)phenyl)-3-cyclopropylpropanoic acid] was tested, and the IC50 was under 5 nM.
Work on `CC[C@@H](CC(=O)O)c1ccc(N(CC)C2CCOCC2)c(Nc2ccn3nc(C)c(F)c3n2)c1` (single isomer, unassigned) [Example 473] yielded an IC50 of over 50 nM.
`COCC(CC(=O)O)c1cc(F)c(N(CC(C)C)CC(C)C)c(NC(=O)Cc2ccc(C)cc2)c1` (single isomer, unassigned) [Example 1190, 3-(4-(Diisobutylamino)-3-fluoro-5-(2-(p-tolyl)acetamido)phenyl)-4-methoxybutanoic acid] showed an IC50 of under 5 nM.
In the case of `CCOc1ccc(NC(=O)Nc2cc(C(C)(C)CC(=O)O)ccc2N(CC)C2CCOCC2)cc1` [Example 166, 3-(3-(3-(4-Ethoxyphenyl)ureido)-4-(ethyl(tetrahydro-2H-pyran-4-yl)amino)phenyl)-3-methylbutanoic acid], the IC50 is reported as over 50 nM.
`CCCN(c1ccc([C@@H](COC)CC(=O)O)cc1Nc1cnc(OCC2CC2)nc1)C1CCOCC1` (single isomer, unassigned) [Example 563] gave an IC50 of under 50 nM.
`CC[C@@H](CC(=O)O)c1ccc(N2CCC[C@H]2C(C)(C)F)c(Nc2ccc(Cl)cc2)c1` (single isomer, unassigned) [Example 788] showed an IC50 of under 5 nM.
Compound `CCC(CC(=O)O)c1ccc(N2CCC[C@@H]2COC)c(NC(=O)Cc2ccc(C)cc2)c1` (mixture of isomers) [Example 1143, (±)-3-(4-((R)-2-(Methoxymethyl)pyrrolidin-1-yl)-3-(2-(p-tolyl)acetamido)phenyl)pentanoic acid] has an IC50 of over 50 nM.
For `Cc1ccc(NC(=O)Nc2cc(C(C)CC(=O)O)c(F)cc2N(CC(C)C)C2CCCCC2)cc1` (single isomer, unassigned) [Example 956, 3-(4-(Cyclohexyl(isobutyl)amino)-2-fluoro-5-(3-(p-tolyl)ureido)phenyl)butanoic acid], the IC50 was under 5 nM.
Compound `CC[C@@H](CC(=O)O)c1ccc(N(CC)C2CCCCC2)c(Nc2ccc(OC(F)F)cc2)c1` (single isomer, unassigned) [Example 284] has an IC50 of under 5 nM.
Work on `CC[C@H](CC(=O)O)c1ccc(N2CCC[C@H]2C(C)(C)F)c(NC(=O)Nc2ccc(Cl)cc2F)c1` (single isomer, unassigned) [Example 791] yielded an IC50 of under 50 nM.
In the case of `CC[C@@H](CC(=O)O)c1ccc(N(CC)C2CCOCC2)c(NC(=O)Nc2ccc3c(c2)CS(=O)(=O)C3)c1` (single isomer, unassigned) [Example 496], the IC50 is reported as over 50 nM.
`CC(C)CN(c1ccc(C(COCC2CC2(F)F)CC(=O)O)cc1NC(=O)Nc1ccc(Cl)cc1F)C1CCCCC1` (racemic) [Example 1002, (+/−)-3-(3-(3-(4-Chloro-2-fluorophenyl)ureido)-4-(cyclohexyl(isobutyl)amino)phenyl)-4-((2,2-difluorocyclopropyl)methoxy)butanoic acid] was tested, and the IC50 was under 50 nM.
Compound `CCC(CC(=O)O)c1ccc(N(CC(C)C)C2CCCCC2)c(NC(=O)Cc2ccc(Cl)cc2F)c1` (single isomer, unassigned) [Example 1096 E2] has an IC50 of under 5 nM.
`CCOc1ccc(Nc2cc([C@H](CC)CC(=O)O)ccc2N2CCC[C@H]2C(C)(C)O)cc1` (single isomer, unassigned) [Example 816] showed an IC50 of over 50 nM.
Compound `CCC(CC(=O)O)c1cc(NC(=O)Nc2ccc(C)cc2)c(N(CC(C)C)C2CCCCC2)cc1F` (racemic) [Example 951, (+/−)-3-(4-(Cyclohexyl(isobutyl)amino)-2-fluoro-5-(3-(p-tolyl)ureido)phenyl)pentanoic acid] has an IC50 of under 5 nM.
Compound `CCCN(CC1CC1)c1ccc(C(CC)CC(=O)O)cc1Nc1cnc(OCC)nc1` (single isomer, unassigned) [Example 660, 3-(4-((cyclopropylmethyl)(propyl)amino)-3-((2-ethoxypyrimidin-5-yl)amino)phenyl)pentanoic acid] has an IC50 of under 5 nM.
Work on `CC(CC(=O)O)c1ccc(N2CCC[C@H]2C(C)(C)O)c(Nc2ccc(Cl)cc2)c1` (single isomer, unassigned) [Example 804] yielded an IC50 of under 50 nM.
With `CCc1ccc(Nc2cc([C@@H](CC)CC(=O)O)ccc2N(CC)C2CCCCC2)cc1` (single isomer, unassigned) [Example 282] the IC50 was under 5 nM.
Compound `CCCN(CC1CC1)c1ccc(C(CC)CC(=O)O)cc1Nc1ccc(Cl)cc1` (single isomer, unassigned) [Example 656 E1, 3-(3-((4-Chlorophenyl)amino)-4-((cyclopropylmethyl)(propyl)amino)phenyl)pentanoic acid] has an IC50 of under 5 nM.
